The text below walks through data of patent publication US9296688B2, “Carbohydrate-selective receptors” (New York University, priority 2012, dated 2016).

The conditions of test [1]: CDCl3, 25° C., extrapolated from a Van't Hoff plot.
Protocol: (§1) ^1H NMR titrations were performed in CDCl3 at a field strength of either 500, 800, or 900 MHz at 25, 20, 15, 10, or 5° C. The ^1H NMR resonances corresponding to both pyranoside and host were assigned through ^1H-^1H COSY and NOESY experiments.
(§2) This is the result of an exchange process involving 1 (H) and pyranoside (G) equilibria products exchanging fast on the NMR timescale, resulting in the averaging of chemical shifts of protons in differing chemical environments.
(§3) Fittings were conducted in Microsoft Excel 2007 using the Solver feature. […]
Thus, the binding of pyranosides was first studied under conditions where receptor 1 was maintained at a low concentration (<70 μM) to minimize the contribution of the Kdimer and K3 equilibria (FIG. 2). Once the values of K1 and K2 were determined, their values were held invariant in subsequent peak shift fittings, which facilitated the quantification of the other Kas.
(§4) For each non-mannoside, K1 was determined by subjecting all resolvable resonances from each titration at 25° C. to a global nonlinear fitting analysis with a model combining K1 and Kdimer (13.0±0.5 M^−1), which was measured independently by ^1H NMR dilution experiments (Table 1). […]
How the values of test [2] were obtained:
Note that all equilibria present in a receptor/pyranoside mixture contribute toward the calculated BC50 value, and a higher 1/BC50 value is indicative of a higher overall binding strength.
As each 1/BC50 plot is a measure of affinity between 1 and pyranosides, comparing the plots of two or more pyranosides provides a means of assessing selectivity.
The BC50^0 values of the pyranosides for receptor 1 were determined using Eq. 17.
The source holds these as a separate data set.

Experiment in test [3]: not given
The source holds these as a separate data set.

The conditions of test [4]: 1/BC50 plot, pyranoside 0 to 10.0 mM.
Protocol: as §1, §2, §3
Thus, the binding of pyranosides was first studied under conditions where receptor 1 was maintained at a low concentration (<70 μM) to minimize the contribution of the Kdimer and K3 equilibria (FIG. 2). Once the values of K1 and K2 were determined, their values were held invariant in subsequent peak shift fittings, which facilitated the quantification of the other Kas. […]
as §4
[5] abbreviates: 1:2 binding (K2), CDCl3, Van't Hoff.

Several values for one entry are separate records, joined by “and”; a condition that tells them apart may be missing. Identical values can stand only once. Like-named read-outs stand apart in the source and are kept apart here.

Turning to `c1c[nH]c(CNCc2cc(CNCc3ccc[nH]3)cc(-c3cc(CNCc4ccc[nH]4)cc(CNCc4ccc[nH]4)c3)c2)c1` [Compound 1, N,N′,N′N″N′″-([1,1′-biphenyl]-3,3′,5,5′-tetrayltetrakis(methylene))tetrakis (1-(1H-pyrrol-2-yl)methanamine)], in test [1], the “K3 (2:1 receptor:pyranoside binding)” value is 3 M⁻¹. The Kdimer reads like this: (CDCl3, 5° C.) 24.2 ± 0.5 M⁻¹; (CDCl3, 10° C.) 20.8 M⁻¹; (CDCl3, 15° C.) 16.9 M⁻¹; (CDCl3, 20° C.) 15.3 M⁻¹; (CDCl3, 25° C.) 13.0 M⁻¹ and 13.0 ± 0.5 M⁻¹. In addition, the results for the binding order entry in test [2] (higher pyranoside concentrations (>1.0 mM)) and in test [2] (pyranoside from 0.3 mM to 1.0 mM) were “α-Man>β-Man>β-Glc” and “α-Man>β-Glc>β-Man”, respectively. In addition, the “ΔH°” value in test [3] (setting [5]) was -20.2 ± 1.2 kcal/mol. The “ΔS°” value in test [3] (setting [5]) is recorded as −52±4 e.u. The “interaction parameter α for K3 (K3 / reference Ka)” value in test [3] (2:1 binding, 25° C.) is “at least 2.7”. In test [3] (from NMR detection limit, no NOEs on β-face, 0.5 mM 1, 1.0 mM β-Man, 25° C.), the “approximate baseline (reference) Ka, 1:1 binding of 1 to the β-face of β-Man” value was at most 104 M⁻¹. The “concentration of α-Man where the maximum 1/BC50 value (maximum selectivity) is obtained” value in test [4] was determined as 0.8 mM.
